Measurements from US8013156B2 (Exelixis, Inc., priority 2003, dated 2011).

Target: Tie-2 (Homo sapiens, UniProt Q02763)
Experiment: Tie-2 tyrosine kinase activity assay (luciferase/luciferin ATP consumption with pEY substrate, or 33P-ATP incorporation)
Format: biochemical
Details: human enzyme Tie-2
Procedure: One measure of inhibition is Ki. […] The Ki for a compound is determined from the IC50 based on three assumptions. First, only one compound molecule binds to the enzyme and there is no cooperativity. […] Third, the enzymatic rate of the enzyme-inhibitor complex is zero. The rate data (i.e. compound concentration) are fitted to the equation:
[formula] where V is the observed rate, Vmax, is the rate of the free enzyme, I0 is the inhibitor concentration, E0 is the enzyme concentration, and Kd is the dissociation constant of the enzyme-inhibitor complex.
Tyrosine kinase activity is determined by 1) measurement of kinase-dependent ATP consumption by in the presence of a generic substrate such as […], tyrosine (pEY), by luciferase/luciferin-mediated chemiluminescence or; 2) incorporation of radioactive phosphate derived from ^33P-ATP into a generic substrate which has been adsorbed onto the well surface of polystyrene microtiter plates. Phosphorylated substrate products are quantified by scintillation spectrometry.
Inhibition is indicated as IC50 with following key: A=IC50 less than 50 nM, B=IC50 greater than 50 nM, but less than or equal to 1000 nM, C=IC50 greater than 1000 nM, but less than 10,000 nM, D=IC50 10,000 nM or greater, and “-”=no data available. The abbreviation for human enzyme, Tie-2, is defined as tyrosine kinase with immunoglobulin and EGF repeats.

Tie-2, sequence (Q02763 23-1124): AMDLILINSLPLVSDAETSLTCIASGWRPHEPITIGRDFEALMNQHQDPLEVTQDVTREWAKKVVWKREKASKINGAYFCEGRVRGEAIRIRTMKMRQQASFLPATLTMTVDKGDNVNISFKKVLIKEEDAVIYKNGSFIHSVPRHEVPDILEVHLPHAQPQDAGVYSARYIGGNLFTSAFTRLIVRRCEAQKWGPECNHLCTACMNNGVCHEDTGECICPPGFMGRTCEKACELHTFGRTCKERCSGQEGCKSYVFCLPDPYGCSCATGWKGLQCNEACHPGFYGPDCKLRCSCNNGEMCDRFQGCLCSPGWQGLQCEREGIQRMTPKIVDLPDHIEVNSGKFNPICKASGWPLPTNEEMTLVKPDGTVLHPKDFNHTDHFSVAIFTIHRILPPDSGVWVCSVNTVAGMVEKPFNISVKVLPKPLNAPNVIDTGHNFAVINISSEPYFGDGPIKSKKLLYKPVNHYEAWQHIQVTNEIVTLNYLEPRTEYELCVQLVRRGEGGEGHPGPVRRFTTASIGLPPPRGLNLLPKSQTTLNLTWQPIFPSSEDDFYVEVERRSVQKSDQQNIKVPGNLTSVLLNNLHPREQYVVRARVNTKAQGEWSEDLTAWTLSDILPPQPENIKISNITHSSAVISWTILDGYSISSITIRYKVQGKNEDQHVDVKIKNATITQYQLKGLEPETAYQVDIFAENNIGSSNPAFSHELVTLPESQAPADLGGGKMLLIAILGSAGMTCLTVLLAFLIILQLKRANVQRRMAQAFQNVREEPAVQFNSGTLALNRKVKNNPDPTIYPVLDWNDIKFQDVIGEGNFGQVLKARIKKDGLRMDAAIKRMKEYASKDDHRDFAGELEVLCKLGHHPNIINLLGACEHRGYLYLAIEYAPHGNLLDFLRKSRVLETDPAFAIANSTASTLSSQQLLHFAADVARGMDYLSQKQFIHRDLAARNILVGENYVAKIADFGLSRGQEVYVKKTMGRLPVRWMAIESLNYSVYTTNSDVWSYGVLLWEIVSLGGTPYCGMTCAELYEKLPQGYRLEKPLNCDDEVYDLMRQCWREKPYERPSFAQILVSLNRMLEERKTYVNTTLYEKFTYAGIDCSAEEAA

Question: `COC(=O)Nc1cc(COc2nsnc2N2CCN(C(=O)Nc3cc(C(F)(F)F)cc(C(F)(F)F)c3)CC2)ccn1` [Example 101, methyl {4-[({4-[4-({[3,5-bis(trifluoromethyl)phenyl]amino}carbonyl)piperazin-1-yl]-1,2,5-thiadiazol-3-yl}oxy)methyl]pyridin-2-yl}carbamate] was tested. Which IC50 did it give?
Answer: < 0.05 µM

Question: How did the IC50 turn out when `Nc1cc(COc2nsnc2N2CCNCC2)ccn1` [Example 102, 4-{[(4-piperazin-1-yl-1,2,5-thiadiazol-3-yl)oxy]methyl}pyridin-2-amine] was run?
Answer: ≥ 10 µM

Question: For `O=C(Nc1ccc(Cl)cc1)N1CCN(c2ncccc2OCc2ccncc2)CC1` [Example 103, N-(4-chlorophenyl)-4-{3-[(pyridin-4-ylmethyl)oxy]pyridin-2-yl}piperazine-1-carboxamide], which IC50 is on record?
Answer: ≥ 10 µM

Question: Which IC50 does the source give for `Nc1nccc(COc2nsnc2N2CCN(C(=O)Nc3cc(C(F)(F)F)cc(C(F)(F)F)c3)CC2)n1` [Example 104, 4-(4-{[(2-aminopyrimidin-4-yl)methyl]oxy}-1,2,5-thiadiazol-3-yl)-N-[3,5-bis(trifluoromethyl)phenyl]piperazine-1-carboxamide] here?
Answer: < 0.05 µM

Question: Which IC50 does the source give for `O=C(Nc1cccc(Cl)c1)N1CCN(c2ncccc2OCc2ccncc2)CC1` [Example 105, N-(3-chlorophenyl)-4-{3-[(pyridin-4-ylmethyl)oxy]pyridin-2-yl}piperazine-1-carboxamide] here?
Answer: 0.05 to 1 µM

Question: Which IC50 does the source give for `CCCNc1cc(COc2nsnc2N2CCNCC2)ccn1` [Example 106, 4-{[(4-piperazin-1-yl-1,2,5-thiadiazol-3-yl)oxy]methyl}-N-propylpyridin-2-amine] here?
Answer: ≥ 10 µM

Question: `CCCNc1cc(COc2nsnc2N2CCN(C(=O)Nc3cc(C(F)(F)F)cc(C(F)(F)F)c3)CC2)ccn1` [Example 107, N-[3,5-bis(trifluoromethyl)phenyl]-4-[4-({[2-(propylamino)pyridin-4-yl]methyl}oxy)-1,2,5-thiadiazol-3-yl]piperazine-1-carboxamide] was tested. Which IC50 did it give?
Answer: 0.05 to 1 µM

Question: How did the IC50 turn out when `CNc1nccc(COc2nsnc2N2CCN(C(=O)Nc3cc(C(F)(F)F)cc(C(F)(F)F)c3)CC2)n1` [Example 108, N-[3,5-bis(trifluoromethyl)phenyl]-4-[4-({[2-(methylamino)pyrimidin-4-yl]methyl}oxy)-1,2,5-thiadiazol-3-yl]piperazine-1-carboxamide] was run?
Answer: < 0.05 µM

Question: `CNc1cc(COc2nsnc2N2CCNCC2)ccn1` [Example 109, N-methyl-4-{[(4-piperazin-1-yl-1,2,5-thiadiazol-3-yl)oxy]methyl}pyridin-2-amine] was tested. Which IC50 did it give?
Answer: ≥ 10 µM

Question: How did the IC50 turn out when `CCCCNc1cc(COc2nsnc2N2CCNCC2)ccn1` [Example 111, N-butyl-4-{[(4-piperazin-1-yl-1,2,5-thiadiazol-3-yl)oxy]methyl}pyridin-2-amine] was run?
Answer: ≥ 10 µM

Question: For `CNc1cc(COc2nsnc2N2CCN(C(=O)Nc3cc(C(F)(F)F)cc(C(F)(F)F)c3)CC2)ccn1` [Example 112, N-[3,5-bis(trifluoromethyl)phenyl]-4-[4-({[2-(methylamino)pyridin-4-yl]methyl}oxy)-1,2,5-thiadiazol-3-yl]piperazine-1-carboxamide], which IC50 is on record?
Answer: < 0.05 µM

Question: How did the IC50 turn out when `CCNc1cc(COc2nsnc2N2CCN(C(=O)Nc3cc(C(F)(F)F)cc(C(F)(F)F)c3)CC2)ccn1` [Example 113, N-[3,5-bis(trifluoromethyl)phenyl]-4-[4-({[2-(ethylamino)pyridin-4-yl]methyl}oxy)-1,2,5-thiadiazol-3-yl]piperazine-1-carboxamide] was run?
Answer: < 0.05 µM

Question: Which IC50 does the source give for `CCCCNc1cc(COc2nsnc2N2CCN(C(=O)Nc3cc(C(F)(F)F)cc(C(F)(F)F)c3)CC2)ccn1` [Example 114, N-[3,5-bis(trifluoromethyl)phenyl]-4-[4-({[2-(butylamino)pyridin-4-yl]methyl}oxy)-1,2,5-thiadiazol-3-yl]piperazine-1-carboxamide] here?
Answer: 0.05 to 1 µM

Question: `O=C(Nc1cc(C(F)(F)F)cc(C(F)(F)F)c1)N1CCN(c2nsnc2OCc2ccnc(NCc3ccccc3)c2)CC1` [Example 115, N-[3,5-bis(trifluoromethyl)phenyl]-4-{4-[({2-[(phenylmethyl)amino]pyridin-4-yl}methyl)oxy]-1,2,5-thiadiazol-3-yl}piperazine-1-carboxamide] was tested. Which IC50 did it give?
Answer: 0.05 to 1 µM

Question: How did the IC50 turn out when `CC(C)Nc1nccc(COc2nsnc2N2CCN(C(=O)Nc3cc(C(F)(F)F)cc(C(F)(F)F)c3)CC2)n1` [Example 116, N-[3,5-bis(trifluoromethyl)phenyl]-4-{4-[({2-[(1-methylethyl)amino]pyrimidin-4-yl}methyl)oxy]-1,2,5-thiadiazol-3-yl}piperazine-1-carboxamide] was run?
Answer: 0.05 to 1 µM

Question: How did the IC50 turn out when `O=C(Nc1cc(C(F)(F)F)cc(C(F)(F)F)c1)N1CCN(c2nsnc2OCc2ccnc(NCc3ccccc3)n2)CC1` [Example 117, N-[3,5-bis(trifluoromethyl)phenyl]-4-{4-[({2-[(phenylmethyl)amino]pyrimidin-4-yl}methyl)oxy]-1,2,5-thiadiazol-3-yl}piperazine-1-carboxamide] was run?
Answer: 0.05 to 1 µM

Question: `O=C(Nc1cc(C(F)(F)F)cc(C(F)(F)F)c1)N1CCN(c2nsnc2OCc2ccnc(Nc3ccccc3)n2)CC1` [Example 118, N-[3,5-bis(trifluoromethyl)phenyl]-4-[4-({[2-(phenylamino)pyrimidin-4-yl]methyl}oxy)-1,2,5-thiadiazol-3-yl]piperazine-1-carboxamide] was tested. Which IC50 did it give?
Answer: < 0.05 µM

Question: Which IC50 does the source give for `CN(C)CCNc1nccc(COc2nsnc2N2CCN(C(=O)Nc3cc(C(F)(F)F)cc(C(F)(F)F)c3)CC2)n1` [Example 119, N-[3,5-bis(trifluoromethyl)phenyl]-4-(4-{[(2-{[2-(dimethylamino)ethyl]amino}pyrimidin-4-yl)methyl]oxy}-1,2,5-thiadiazol-3-yl)piperazine-1-carboxamide] here?
Answer: 0.05 to 1 µM

Question: Which IC50 does the source give for `CN(C)CCNc1cc(COc2nsnc2N2CCN(C(=O)Nc3cc(C(F)(F)F)cc(C(F)(F)F)c3)CC2)ccn1` [Example 120, N-[3,5-bis(trifluoromethyl)phenyl]-4-(4-{[(2-{[2-(dimethylamino)ethyl]amino}pyridin-4-yl)methyl]oxy}-1,2,5-thiadiazol-3-yl)piperazine-1-carboxamide] here?
Answer: 0.05 to 1 µM

Question: How did the IC50 turn out when `CCNc1nccc(COc2nsnc2N2CCN(C(=O)Nc3cc(C(F)(F)F)cc(C(F)(F)F)c3)CC2)n1` [Example 121, N-[3,5-bis(trifluoromethyl)phenyl]-4-[4-({[2-(ethylamino)pyrimidin-4-yl]methyl}oxy)-1,2,5-thiadiazol-3-yl]piperazine-1-carboxamide] was run?
Answer: < 0.05 µM

Question: With `CCCNc1nccc(COc2nsnc2N2CCN(C(=O)Nc3cc(C(F)(F)F)cc(C(F)(F)F)c3)CC2)n1` [Example 122, N-[3,5-bis(trifluoromethyl)phenyl]-4-[4-({[2-(propylamino)pyrimidin-4-yl]methyl}oxy)-1,2,5-thiadiazol-3-yl]piperazine-1-carboxamide] as the compound, how does the IC50 read?
Answer: 0.05 to 1 µM

Question: For `O=C(Nc1cc(C(F)(F)F)cc(C(F)(F)F)c1)N1CCN(c2nsnc2OCc2ccnc(NC3CC3)n2)CC1` [Example 123, N-[3,5-bis(trifluoromethyl)phenyl]-4-[4-({[2-(cyclopropylamino)pyrimidin-4-yl]methyl}oxy)-1,2,5-thiadiazol-3-yl]piperazine-1-carboxamide], which IC50 is on record?
Answer: < 0.05 µM

Question: For `CC(=O)Nc1nccc(COc2nsnc2N2CCN(C(=O)Nc3cc(C(F)(F)F)cc(C(F)(F)F)c3)CC2)n1` [Example 124, 4-[4-({[2-(acetylamino)pyrimidin-4-yl]methyl}oxy)-1,2,5-thiadiazol-3-yl]-N-[3,5-bis(trifluoromethyl)phenyl]piperazine-1-carboxamide], which IC50 is on record?
Answer: < 0.05 µM

Question: With `O=C(Nc1cc(COc2nsnc2N2CCN(C(=O)Nc3cc(C(F)(F)F)cc(C(F)(F)F)c3)CC2)ccn1)c1ccccc1` [Example 125, N-[3,5-bis(trifluoromethyl)phenyl]-4-{4-[({2-[(phenylcarbonyl)amino]pyridin-4-yl}methyl)oxy]-1,2,5-thiadiazol-3-yl}piperazine-1-carboxamide] as the compound, how does the IC50 read?
Answer: 1 to 10 µM

Question: Which IC50 does the source give for `O=C(Nc1nccc(COc2nsnc2N2CCN(C(=O)Nc3cc(C(F)(F)F)cc(C(F)(F)F)c3)CC2)n1)c1ccccc1` [Example 126, N-[3,5-bis(trifluoromethyl)phenyl]-4-{4-[({2-[(phenylcarbonyl)amino]pyrimidin-4-yl}methyl)oxy]-1,2,5-thiadiazol-3-yl}piperazine-1-carboxamide] here?
Answer: 0.05 to 1 µM

Question: With `O=C(Nc1cc(C(F)(F)F)cc(C(F)(F)F)c1)N1CCN(c2nsnc2OCc2ccnc(NC3CCCC3)n2)CC1` [Example 128, N-[3,5-bis(trifluoromethyl)phenyl]-4-[4-({[2-(cyclopentylamino)pyrimidin-4-yl]methyl}oxy)-1,2,5-thiadiazol-3-yl]piperazine-1-carboxamide] as the compound, how does the IC50 read?
Answer: 0.05 to 1 µM

Question: How did the IC50 turn out when `CC(=O)Nc1cc(COc2nsnc2N2CCN(C(=O)Nc3cc(C(F)(F)F)cc(C(F)(F)F)c3)CC2)ccn1` [Example 129, 4-[4-({[2-(acetylamino)pyridin-4-yl]methyl}oxy)-1,2,5-thiadiazol-3-yl]-N-[3,5-bis(trifluoromethyl)phenyl]piperazine-1-carboxamide] was run?
Answer: < 0.05 µM

Question: With `O=C(Nc1cc(C(F)(F)F)cc(C(F)(F)F)c1)Nc1cc(COc2nsnc2N2CCN(C(=O)Nc3cc(C(F)(F)F)cc(C(F)(F)F)c3)CC2)ccn1` [Example 130, N-[3,5-bis(trifluoromethyl)phenyl]-4-{4-[({2-[({[3,5-bis(trifluoromethyl)phenyl]amino}carbonyl)amino]pyridin-4-yl}methyl)oxy]-1,2,5-thiadiazol-3-yl}piperazine-1-carboxamide] as the compound, how does the IC50 read?
Answer: 1 to 10 µM
